# Patent publication US8956622B2, “Peptidic antagonists of class III semaphorins/neuropilins complexes” (INSERM—Institut National de la Sante et de la Recherche …, priority 2005, dated 2015)
# Experiments:
# [1] = system: cortical axons collapses triggered by Sema3A; test: Cortical axons collapses triggered by Sema3A in neocortex explants; format: cell-based, mouse; details: peptide 10^−8 M, Sema3A 100 ng/ml
# Procedure: The inhibitory axon growth property of Sema 3A is supposed to be linked to its induction capacity of growth cone collapses. To investigate the effect of the pTM-NRP1 peptide on the Sema 3A functional properties, the growth of cortical neurons was analyzed in the presence or not of Sema 3A and of pTM-NRP1 or pTM-NRP1^mut (NRP1 TM with a triple G→V mutation) peptides.
# Laminine/Poly-L-Lysine substrates have been made by adding 980 μL of Gey's balanced salt solution (GBSS, SIGMA) to 10 μL laminine (1 mg/ml, SIGMA) and to 10 μL poly-L-Lysine (10 mg/ml, SIGMA). Sterile coverslips have been placed in a big dish and added with substrate (100 μL). Then, ‘sandwiches’ have been prepared by covering each coverslip with a second one. After an incubation for at least 30 min at 37° C. under 5% CO2 in air, ‘sandwiches’ have been opened and each coverslip has been rinsed with deionized water. Explants have been cultured on dried coverslips.
# Neocortex fragments prepared from E15 mouse embryos (E1 determined as the first day of embryonic development by detection of vaginal plug) have been transferred on a tissue chopper disk. Tissue have been cut into 200×200 μm by rotating the disk by 90° after the first cut. Cortex cubes have been collected with a spatula and put into culture medium in a Petri dish. Two coverslips with substrate have been placed in a small Petri dish (50 mm diameter, FALCON). After adding 750 μl of culture medium, the coverslips should stay in the incubator for at least 10 minutes. Using a dissecting microscope, forty to fifty cortical explants have been collected in 20 μl culture medium and carefully placed onto the coverslips. After 15 min at room temperature, most explants have adhered to their substrate. 2250 μl of culture medium have been slowly added to each dish. Then, explants cultures have been kept at 37° C. under 5% CO2 in air.
# A radial outgrowth could be seen after 18-24 h in culture, and individual fibres and growth cones could have therefore been analyzed. Products tested on growth cones have been directly added in culture medium for 2 h: • purified Sema3A (100 ng/ml) prepared from conditioned medium of HEK293 cells stably expressing Sema3A. The purification was performed by using the anti-Flag system, SIGMA) • pTM-NRP1 (10^−8, 10^−9, 10^−10 and 10^−11 M), • 10^−8M mpTM-NRP1, • 10^−8M pTM-ErbB2w (SEQ ID NO. 18).
# After incubation, 4% formaldehyde has been directly added in culture medium (v/v) for 15min. Then the solution has been removed and replaced by 4% formaldehyde for 15 min.
# [2] = system: COS-1 cells expressing NRP1 and Plexin-A1; test: COS cellular collapses triggered by Sema3A; format: cell-based; details: peptide 10^−9 M, 1 hour pre-incubation, Sema 3A 4 hours
# Procedure: Nevertheless, the artificial expression of NRP1 and Plexin-A1 in COS cells allows Sema 3A to trigger cellular collapses. To investigate the effect of the pTM-NRP1 peptide on the Sema3A functional properties, the shape of COS cells expressing NRP1 and Plexin-A1 was analyzed in the presence or not of Sema 3A and of pTM-NRP1 or pTM-NRP1^mut peptide.
# COS-1 cells have been transfected by 1 μg of pBK-CMV (STRATAGENE) plasmids containing NRP1 and plexin-A1 coding sequences (provided by Pr. PUSCHEL; MUNSTER Universitat, Germany) with LIPOFECTAMINE 2000 (IN VITROGEN) according to the manufacturer's instructions in 6-well plates. Stably COS-1 transfected cells have been selected with 0.7% geneticine. Stably transfected COS-1 cells have been cultured on 12-well plates with previously poly-L-lysine-coated glass coverslips. Cells have been then incubated 1 hour with pTM-NRP1 or pTM-NRP1^mut peptide (10^−9M) at 37° C. The culture medium has been then removed and replaced by conditioned medium of HEK cells stably transfected or not with a construction expressing Sema 3A (100 μl/ml D-MEM) for 4 hours at 37° C. Finally, cells have been fixed with 2% formaldehyde for 30 minutes followed by 15 minutes in formaldehyde 4%. For each condition tested, about 400 cells have been analyzed.
# [3] = target: T1, NRP1 (Homo sapiens, UniProt O14786); test: AP-Sema3A binding to NRP1-expressing COS cells (optical density per cell); details: peptide 10^−9 M, 1 hour pre-incubation
# T1 construct: mutations were introduced into the TM domain of a full length NRP1; expressed in transfected cells; host or cells: COS-1 cells, pBK-CMV plasmid (cDNA provided by Pr. Puschel)
# T1 sequence (O14786 22-923): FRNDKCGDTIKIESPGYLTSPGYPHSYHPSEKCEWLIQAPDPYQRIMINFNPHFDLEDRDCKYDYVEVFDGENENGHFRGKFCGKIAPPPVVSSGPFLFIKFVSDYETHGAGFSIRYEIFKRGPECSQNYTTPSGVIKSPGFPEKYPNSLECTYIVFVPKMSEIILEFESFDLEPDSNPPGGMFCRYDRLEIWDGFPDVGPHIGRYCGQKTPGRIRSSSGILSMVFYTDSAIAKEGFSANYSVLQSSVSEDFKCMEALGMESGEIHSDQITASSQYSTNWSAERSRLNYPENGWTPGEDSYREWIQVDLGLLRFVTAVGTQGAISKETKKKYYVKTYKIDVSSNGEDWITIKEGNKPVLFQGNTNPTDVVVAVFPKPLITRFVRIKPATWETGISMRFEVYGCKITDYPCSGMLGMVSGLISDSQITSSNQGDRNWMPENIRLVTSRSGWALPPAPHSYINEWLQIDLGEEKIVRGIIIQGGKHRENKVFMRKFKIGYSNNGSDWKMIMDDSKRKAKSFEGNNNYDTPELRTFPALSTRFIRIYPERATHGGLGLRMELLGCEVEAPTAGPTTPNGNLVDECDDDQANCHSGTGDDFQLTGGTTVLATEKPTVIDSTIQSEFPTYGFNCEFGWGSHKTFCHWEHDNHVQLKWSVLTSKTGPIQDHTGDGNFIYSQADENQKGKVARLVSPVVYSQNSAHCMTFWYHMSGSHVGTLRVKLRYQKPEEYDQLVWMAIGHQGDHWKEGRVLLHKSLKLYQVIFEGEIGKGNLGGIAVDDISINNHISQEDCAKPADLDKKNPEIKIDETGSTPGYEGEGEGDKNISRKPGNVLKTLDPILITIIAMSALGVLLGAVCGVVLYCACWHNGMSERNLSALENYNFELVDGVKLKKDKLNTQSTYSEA
# Procedure: NRP1 expressing COS cells were incubated with AP-Sema3A, a fusion protein of Sema3A and the secreted alkaline phosphatase (BAGNARD et al., 1998).
# Wild-type COS cells or NRP1-expressing COS cells (COS-NRP1) were cultured on 12-wells plates on poly-L-lysine-coated glass coverslips (0.005 mg/ml). After one-hour incubation with pTM-NRP1 or pTM-NRP1^mut (10^−9M) in serum-free medium at 37° C., the culture medium was replaced by conditioned medium containing alkaline phosphatase-coupled Sema3A (AP-Sema3A; BAGNARD et al., 1998) obtained from AP-Sema3A stably expressing HEK cells for 90 mn. Conditioned medium without semaphorin served as a control (obtained from non-transfected HEK). Cells were washed three times with PBS and fixed in 4% formaldehyde before transfer in a new dish. After three washes in PBS, the plate was warmed for 50 mn at 65° C. Cells were subsequently incubated with 1 ml of alkaline phosphatase substrate (NBT/BCIP, SIGMA) in the dark. After 45 mn, substrate was removed and glass coverslips were rinsed. Pictures were acquired with a conventional microscope and analyzed with AxioVision LE Zeiss software. For each condition tested, about 60 cells were analyzed to determine binding levels as a function of optical density. Statistical analysis was performed by using a Student's t test.
# [4] = target: T2, NRP1 (Rattus norvegicus, UniProt Q9QWJ9); test: AP-Sema3A binding to its receptor NRP1 on C6 glioma cells (luminescence); details: peptide 10^−12 M to 10^−10 M, 1 hour
# T2 construct: Rat C6 glioma cells, which express semaphorin receptors; endogenous in cells; host or cells: rat C6 glioma cells
# Procedure: In order to investigate the NRP1 transmembrane domain role in the linkage NRP1-class III semaphorins, the binding of the ligand Sema3A to its receptor NRP1 on glioma cells was measured in the presence or not of the transmembrane domain peptide of NRP1 (pTM-NRP1 peptide; SEQ ID NO. 1) or of a mutated peptide (mpTM-NRP1; SEQ ID NO. 20, […]). These pTM-NRP1 Peptides have been synthesized by automatic peptidic synthesis (Fmoc chemistry, APPLIED SYSTEM), and analyzed by mass spectrometry. Peptides purity has been estimated by RP-HPLC (BECKMAN) as higher than 90%.
# Rat C6 glioma cells, which express semaphorin receptors, has been used to determine the binding capacity of AP-Sema3A, a secreted alkaline phosphatase version of Sema 3A (ADAMS et al., 1997, BAGNARD et al., 1998). These cells were grown and plated in MEM medium (GIBCO) with 10% foetal calf serum (PERBIO), glutamine 0.5 mM (GIBCO) and antibiotics: 100 U/ml penicillin and 100 μg/ml streptomycin (SIGMA).
# C6 Cells were cultured in 96-well plates and incubated with or without freshly diluted pTM-NRP1 or pTM-NRP1^mut peptides (10^−12 M to 10^−10 M) for 1 hour at 37° C. The culture medium has been then replaced by conditioned medium of HEK cells stably transfected with a construction expressing AP-Sema 3A (ADAMS et al., EMBO J., vol. 16(20), p: 6077-86, 1997; BAGNARD et al., 1998). Conditioned medium from HEK non transfected cells has been used as an internal control. The pTM-NRP1 Peptide has been synthesized by automatic peptidic synthesis (Fmoc chemistry, APPLIED SYSTEM), and analyzed by mass spectrometry. Peptides purity has been estimated by RP-HPLC (BECKMAN) as higher than 90%, the cells have been washed with PBS and incubated with 50 μl of alkaline phosphatase luminescent substrate (AMERSHAM). The luminescence has been read after 15 minutes with MICROLUMAT PLUS system (BERTHOLD TECHNOLOGIES) according to the manufacturer's instructions. Experiments were done 4 times for each peptide.
# [5] = system: VEGF165 signalling in C6 cells; test: VEGF165-induced migration of C6 tumour cell aggregates in 3D matrix (plasma clot); format: cell-based; details: VEGF165 50 ng/ml, peptide 10^−8 M
# Procedure: NRP1 is a receptor of VEGF (NEUFELD et al., Adv. Exp. Med. Biol., vol. 515, p: 81-90, 2002). We therefore verified that pTM-NRP1 can antagonize VEGF signalling in C6 cells. To this end, C6 tumour cell aggregates prepared as previously described (see BAGNARD et al., 1998; and NASARRE et al., Neoplasia, vol. 7, p: 180-189, 2005) were grown in the 3D matrix (plasma clot) and treated with VEGF165.
binding of AP-Sema3A to NRP1-expressing COS cells [3],binding of AP-Sema3A to its receptor NRP1 on C6 cells [4],Sequence,effect on cortical axons collapses triggered by Sema3A [1],effect on cellular collapses of COS-1 cells triggered by Sema 3A [2],VEGF165-dependent C6 cells migration out of aggregates [5]
,,"SIISAVVGILLVVVLGVVFGILI [ErbB2 peptide, reference compound]",no effect,,
did not block,did not block,"ILITIIAMSALVVLLVAVCVVVLYRKR [pTM-NRP1^mut, reference compound]",did not block,did not block,not able to block
